Data published in ChEMBL document CHEMBL1201862, “PubChem BioAssay data set” (2004).
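Assay format: 96-well plates, 48-hour exposure. The concentration for 50% growth inhibition is given as GI50.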 Active and inactive are the calls of the source. Cut-off read from the data, not from the text of the source: active = GI50 up to about 1.1 µM and inactive = higher.

What was measured:
Experiment in all cases: growth of human tumour cells (NCI), 48 h
[1] = tested on: BT-549
[2] = tested on: DMS-114
[3] = tested on: XF498
[4] = tested on: HOP-18
[5] = tested on: LXFL 529
[6] = tested on: DMS-273
[7] = tested on: SNB-78
[8] = tested on: KM-20L2
[9] = tested on: RXF 631

For CC1(C)C(N2CCOCC2)CS1(=O)=O (configuration not stated), the GI50 [1] was > 10 µM (inactive).
O=C(O)c1nc2cc(C(F)(F)F)ccc2[nH]c1=O was tested, and the GI50 [1] was > 100 µM (inactive).
For Cc1ccc(C)n1-n1c(-c2ccccc2)n[nH]c1=O, the GI50 [1] was > 100 µM (inactive).
Cc1ccc(/N=N/C(=O)NNc2ccc(C)c([N+](=O)[O-])c2)cc1[N+](=O)[O-] was tested, and the GI50 [1] was 30.8 µM (inactive).
C/C(=N\NC(N)=S)c1ccccn1.OB(O)c1ccccc1 was tested, and the GI50 [1] was 8.15 µM (inactive).
With c1ccc(CNc2nncc3[nH]cnc23)cc1 the GI50 [1] was > 100 µM (inactive).
In the case of COc1ccc(NC(=O)C(=O)C(C(=O)c2ccccc2)C2OC(=O)c3ccccc32)c([N+](=O)[O-])c1 (configuration not stated), the GI50 [2] is reported as > 100 µM (inactive), the GI50 [3] is reported as > 100 µM (inactive) and the GI50 [4] is reported as > 100 µM (inactive). For the same compound, the GI50 [5] was > 100 µM (inactive), the GI50 [6] was > 100 µM (inactive) and the GI50 [7] was > 100 µM (inactive). The GI50 [8] was > 100 µM (inactive).
In the case of CNS(=O)(=O)NNS(=O)(=O)c1ccc(OC)cc1, the GI50 [9] is reported as > 100 µM (inactive), the GI50 [2] is reported as > 100 µM (inactive) and the GI50 [3] is reported as > 100 µM (inactive). For the same compound, the GI50 [5] was > 100 µM (inactive), the GI50 [6] was > 100 µM (inactive) and the GI50 [8] was > 100 µM (inactive).
O=C1CCCc2cc3c(cc21)CC1(C3)Cc2cc3c(cc2C1)C(=O)CCC3 was tested, and the GI50 [1] was 0.653 µM (active).
For CC1=C(C(=O)Nc2cccc(Cl)c2)C(c2ccccc2O)C(C(=O)Nc2cccc(Cl)c2)=C(C)N1, the GI50 [2] was 22.4 µM (inactive), the GI50 [5] was 21.8 µM (inactive) and the GI50 [7] was 24.5 µM (inactive). For the same compound, the GI50 [8] was 18.4 µM (inactive).
O=C(NC12CC3CC(CC(C3)C1)C2)n1cnc2cncnc21 was tested, and the GI50 [1] was 46.8 µM (inactive).
C#CCC(O)c1ccccc1C(O)CC#C (configuration not stated) was tested, and the GI50 [2] was > 100 µM (inactive), the GI50 [5] was > 100 µM (inactive) and the GI50 [6] was > 100 µM (inactive). For the same compound, the GI50 [7] was 77.8 µM (inactive) and the GI50 [8] was > 100 µM (inactive).
Cc1cc(OCc2nnc3sc(NC(=O)c4ccccc4)nn23)ccc1Cl was tested, and the GI50 [1] was 41.7 µM (inactive).
COc1ccc(/N=N/c2c(O)ccc3ccccc23)cc1 was tested, and the GI50 [1] was 27.4 µM (inactive).
In the case of NC(=S)NS(=O)(=O)c1ccc(Cl)cc1, the GI50 [1] is reported as > 100 µM (inactive).
For Cc1ccc2c(=O)cc(-c3cccc(F)c3)[nH]c2n1, the GI50 [1] was 0.0348 µM (active).
For Oc1ccc2ccccc2c1/N=N/c1ccc(F)cc1, the GI50 [2] was > 100 µM (inactive), the GI50 [4] was > 100 µM (inactive) and the GI50 [5] was > 100 µM (inactive). The GI50 [6] was > 100 µM (inactive) and the GI50 [8] was > 100 µM (inactive).
For C/C(=N\Nc1ccc([N+](=O)[O-])cc1[N+](=O)[O-])c1ccc2ccccc2n1, the GI50 [1] was 53.6 µM (inactive).
With O=C1OC(CCCN2CCCCC2)(c2ccccc2)CC12CCCC2 (configuration not stated) the GI50 [1] was > 100 µM (inactive).
O=C1C(=O)N(c2ccc(Cl)cc2)C(=O)C(=O)C1c1nc2ccccc2s1 was tested, and the GI50 [2] was > 100 µM (inactive), the GI50 [3] was > 100 µM (inactive) and the GI50 [4] was > 100 µM (inactive). For the same compound, the GI50 [5] was > 100 µM (inactive), the GI50 [6] was > 100 µM (inactive) and the GI50 [7] was > 100 µM (inactive). For the same compound, the GI50 [8] was > 100 µM (inactive).
With CC(=O)NCC1OC2COC(c3ccccc3)OC2C2N=C(c3ccccc3)OC12 (configuration not stated) the GI50 [1] was 68.1 µM (inactive).
Nc1nc(Cl)cc(NCC2(CO)CCC2)n1 was tested, and the GI50 [1] was > 100 µM (inactive).
O=C(/C=C/c1ccccc1)CC1OC(=O)c2ccccc21 (configuration not stated) was tested, and the GI50 [2] was 46.3 µM (inactive), the GI50 [3] was > 100 µM (inactive) and the GI50 [4] was 14.9 µM (inactive). The GI50 [5] was 46.7 µM (inactive), the GI50 [6] was > 100 µM (inactive) and the GI50 [8] was > 100 µM (inactive).
In the case of CC(=O)CC1CCC(=O)CCC(=O)OC(CC(C)=O)CCC(=O)CCC(=O)O1 (configuration not stated), the GI50 [1] is reported as > 100 µM (inactive).
For CCOc1ccc(NC(=O)/C(CC(=O)c2c[n+]([O-])c3ccccc3[n+]2[O-])=N\OCCCc2ccccc2)cc1, the GI50 [9] was > 100 µM (inactive), the GI50 [2] was > 100 µM (inactive) and the GI50 [5] was > 100 µM (inactive). The GI50 [6] was > 100 µM (inactive), the GI50 [7] was > 100 µM (inactive) and the GI50 [8] was > 100 µM (inactive).
Cc1cc(C)nc(NS(=O)(=O)c2ccc(NNc3c4ccccc4nc4c(C(=O)Nc5ccc(S(=O)(=O)Nc6cc(C)on6)cc5)cccc34)cc2)n1 was tested, and the GI50 [1] was 72.1 µM (inactive).
O=C1c2c(F)c(F)c(F)c(F)c2SC2=NCCN12 was tested, and the GI50 [1] was 14.8 µM (inactive).
In the case of CC(C)(C)C1CCC2c3c([nH]c4ccccc34)C3C(=O)N(c4cc(Cl)ccc4Cl)C(=O)C3C2C1 (configuration not stated), the GI50 [1] is reported as > 100 µM (inactive).
With CCCCCCc1cc2cc(C(=O)NCc3ccccc3)c(=N)oc2cc1O the GI50 [1] was > 100 µM (inactive).
With CCOC(=O)C(=O)C(CCC(=O)c1ccc2ccccc2c1O)C(=O)OCC (configuration not stated) the GI50 [1] was > 100 µM (inactive).
For Cc1c2cc[n+](CCN3CCCCC3)cc2c(C)c2c1[nH]c1ccc(O)cc12, the GI50 [2] was 1.51 µM (inactive), the GI50 [4] was 13.1 µM (inactive) and the GI50 [6] was 1.72 µM (inactive). The GI50 [7] was 3.75 µM (inactive), the GI50 [8] was 6.43 µM (inactive) and the GI50 [1] was 11.8 µM (inactive).
N#Cc1c(N)nc(Sc2ccccc2N)c(C#N)c1-c1ccc(Cl)cc1 was tested, and the GI50 [1] was 4.21 µM (inactive).
For O=c1cccccc1NCCCCCCCCCNc1cccccc1=O, the GI50 [2] was 1.35 µM (inactive), the GI50 [3] was 7.36 µM (inactive) and the GI50 [5] was 8.97 µM (inactive). For the same compound, the GI50 [6] was 12.5 µM (inactive), the GI50 [7] was 17.1 µM (inactive) and the GI50 [8] was 19.6 µM (inactive).
In the case of COc1cc(-c2c(C)c(C)nc(OC)c2C#N)cc(OC)c1OC, the GI50 [2] is reported as 49.8 µM (inactive), the GI50 [4] is reported as 46.1 µM (inactive) and the GI50 [5] is reported as 41.9 µM (inactive). For the same compound, the GI50 [7] was 92 µM (inactive) and the GI50 [8] was > 100 µM (inactive).
For COCCOC(=O)c1c(C)[n+]([O-])c2cc(Cl)c(Cl)cc2[n+]1[O-], the GI50 [1] was 19.1 µM (inactive).
